{"source": "patent US20060258713A1", "about": "“Treatment of pain” (Wyeth, priority 2005, published 2006)", "test_system": "Male Sprague-Dawley rats", "test": "L5 spinal nerve ligation (SNL) tactile allodynia model, von Frey thresholds", "assay_type": "in vivo, rat", "settings": "0.3, 1 or 3 mg/kg i.p., thresholds up to 60, 180 and 300 minutes after dosing, reversal of tactile allodynia, FIG. 1", "experimental": "Compound 1, (7-(2,6-dichlorophenyl)-5-fluoro-2,3-dihydrobenzofuran-2-yl)methanamine, was obtained from Wyeth compound repository and gabapentin was purchased from Toronto Research Chemicals (Ontario, Canada) and […]. Compound 1 was dissolved in sterile saline and gabapentin was suspended in 2% Tween 80 in 0.5% methylcellulose and sterile water. All compounds were administered intraperitoneally (i.p.).\nMale Sprague-Dawley rats (125-150 g, Harlan; Indianapolis, Ind.) were individually housed on bedding. For all studies animals were maintained in climate-controlled rooms on a 12-hour light/dark cycle (lights on at 0630) with food and water available ad libitum. […]\nAssessment of Tactile Allodynia (Tactile Sensitivity): Tactile thresholds were assessed using a series of calibrated von Frey monofilaments (Stoelting; Wood Dale, Ill.). The threshold that produced a 50% likelihood of a withdrawal was determined using the up-down method, as previously described (Chaplan et al., 1994).\nAnimals were placed in elevated wire cages and allowed 45-60 minutes to acclimate to the testing room. […] The lowest force that evoked a brisk withdrawal response to the stimuli determined the pain threshold. Tactile thresholds were determined on the day prior to surgery and rats with baseline thresholds <10 g force were excluded from studies. […]"}
{"smiles": "NCC1Cc2cc(F)cc(-c3c(Cl)cccc3Cl)c2O1", "note": "(stereo not shown) [Compound 1, (7-(2,6-dichlorophenyl)-5-fluoro-2,3-dihydrobenzofuran-2-yl)methanamine]", "values": [{"measurement": "effectiveness in the tactile allodynia model", "result": "effectiveness"}]}
